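Step 1: Grow cells in 96-well plates. Step 2: Expose to compound for 48 hours at 5 concentrations. Step 3: Interpolate endpoints linearly; if unreached, use highest concentration. GI50 = concentration required for 50% inhibition of growth.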 The source made the active and inactive calls. Cut-off read from the data, not from the text of the source: active = GI50 up to about 1.1 µM and inactive = higher.
What was measured:
Assay in all cases: inhibition of tumour cell growth, NCI panel, 48 h
ACHN = test system: ACHN
HCC 2998 = test system: HCC 2998
HCT-116 = test system: HCT-116
Hs-578T = test system: Hs-578T
M14 = test system: M14
MDA-MB-231 = test system: MDA-MB-231
Malme-3M = test system: Malme-3M
NCI-H23 = test system: NCI-H23
NCI-H460 = test system: NCI-H460
NCI-H522 = test system: NCI-H522
OVCAR-3 = test system: OVCAR-3
SK-MEL-2 = test system: SK-MEL-2
SK-MEL-5 = test system: SK-MEL-5
SNB-75 = test system: SNB-75
SR = test system: SR
SW-620 = test system: SW-620
T47D = test system: T47D
TK-10 = test system: TK-10
U-251 = test system: U-251

Measured: GI50

O=C(O)CCCCn1cnc2c(S)ncnc21
inactive: ACHN > 100 µM | HCC 2998 > 100 µM | HCT-116 > 100 µM | Hs-578T > 100 µM | M14 > 100 µM | MDA-MB-231 > 100 µM | Malme-3M > 100 µM | NCI-H23 > 100 µM | NCI-H460 > 100 µM | NCI-H522 > 100 µM | OVCAR-3 > 100 µM | SK-MEL-2 > 100 µM | SK-MEL-5 > 100 µM | SNB-75 > 100 µM | SR > 100 µM | SW-620 > 100 µM | T47D > 100 µM | TK-10 > 100 µM | U-251 > 100 µM

c1ccc(SCCc2ccncc2)cc1
inactive: ACHN > 100 µM | HCC 2998 > 100 µM | HCT-116 > 100 µM | Hs-578T > 100 µM | M14 75 µM | MDA-MB-231 > 100 µM | Malme-3M > 100 µM | NCI-H23 67.6 µM | NCI-H460 > 100 µM | NCI-H522 31 µM | OVCAR-3 40.6 µM | SK-MEL-2 > 100 µM | SK-MEL-5 35.8 µM | SNB-75 > 100 µM | SR 19.3 µM | SW-620 > 100 µM | T47D 52.1 µM | TK-10 > 100 µM | U-251 > 100 µM

COc1cc(-c2[o+]c3cc(O)cc(OC4OC(CO)C(O)C(O)C4O)c3cc2OC2OC(CO)C(O)C(O)C2O)cc(OC)c1O (stereo unspecified)
inactive: ACHN > 100 µM | HCC 2998 > 100 µM | HCT-116 > 100 µM | Hs-578T > 100 µM | M14 > 100 µM | MDA-MB-231 > 100 µM | Malme-3M > 100 µM | NCI-H23 > 100 µM | NCI-H460 > 100 µM | NCI-H522 > 100 µM | OVCAR-3 > 100 µM | SK-MEL-2 > 100 µM | SK-MEL-5 > 100 µM | SNB-75 > 100 µM | SR > 100 µM | SW-620 > 100 µM | T47D > 100 µM | TK-10 > 100 µM | U-251 > 100 µM

Cc1occc1C(=S)Nc1ccc(Cl)c(/C=N/OC(C)C)c1
inactive: ACHN 21.2 µM | HCC 2998 26.5 µM | HCT-116 20.4 µM | Hs-578T 26.7 µM | M14 23.3 µM | MDA-MB-231 16.4 µM | Malme-3M 19.8 µM | NCI-H23 20.1 µM | NCI-H460 21 µM | NCI-H522 12.7 µM | OVCAR-3 15.6 µM | SK-MEL-2 19.2 µM | SK-MEL-5 19.9 µM | SNB-75 25.1 µM | SR 21.1 µM | SW-620 20.9 µM | T47D 12.1 µM | TK-10 25.5 µM | U-251 19.5 µM
